Experimental findings from patent US20080131920A1, “Ion flux in biological processes, and methods related thereto” (priority 2005, published 2008) are described below.

Assay [1] has as its system Xenopus embryos. It is filed as in vivo. As to conditions: treated from fertilization to stage 7; organs scored at stage 45.
In assay [2] the test system is Sonic hedgehog (Shh), Nodal. Kind of assay: Sidedness of Shh and Nodal expression in chick embryos (in ovo culture, in situ hybridization). The following applies: in vivo. The text has this:
We examined the effect of inhibiting H^+-V-ATPase activity on the expression of the early left-sided marker Sonic hedgehog (Shh). Inhibition of H^+-V-ATPase activity following treatment with concanamycin or DCCD specifically randomized the expression of Shh, as well as that of and the downstream marker Nodal. Compared to controls, in which these two markers are always left-sided, concanamycin induced aberrant sidedness of Shh expression in 67% and Nodal in 24% of embryos. Thus, as in Xenopus, H^+-V-ATPase is upstream of the known asymmetric gene cascade, and is required for normal LR patterning in chicks.
To perform a pharmacological screen on chick embryos with minimal disturbance to normal morphogenesis, we optimized a chicken in ovo culture system. A small hole was made on the top of each egg (prior to incubation), and 5 ml of light albumin was removed. […]. Eggs were securely wrapped with Scotch tape, incubated at 37.5° C. to the desired stages, then fixed for analysis of laterality markers by in situ hybridization.
Whole mount in situ hybridization (WISH) on Xenopus was performed according to standard methods. DNA used to transcribe in situ hybridization probes were XNr-1 (Lohr et al., 1998, Developmental Genetics 23: 194-202; Lowe et al., 1996, Nature 381: 158-161); cShh (Levin et al., 1995, Cell 82: 803-814); cNodal (Levin et al., 1995, Cell 82: 803-814).

Assay [3] deals with activated caspase-3. The assay is described as follows: Activated caspase-3 localization (apoptosis) in regenerating tails. The assay is classed as in vivo, Xenopus laevis. As to conditions: V-ATPase-inhibited larvae. Here is the method:
Further experiments were done in the Xenopus system based on the results of the pharmacological screen (see Example 6). […] The V-ATPase (Nishi, 2002, Nature Reviews Molecular Cell Biology 3: 94-103) generates strong pH and voltage gradients at the expense of ATP, when expressed in vesicular or cell plasma membranes.
Xenopus larvae were fixed overnight in MEMFA, heated for 2 hrs at 65° C. in 50% formamide (to inactivate endogenous alkaline phosphatases; this procedure was not done when using fluorescent secondary antibodies), permeabilized in PBTr+0.1% Triton X100 for 30 min, and processed for immunohistochemistry using alkaline phosphatase secondary antibody (Levin, 2004, Journal of Biochemical and Biophysical Methods 58: 85-96) until signal was optimal and background minimal (usually 12 hrs). […] Anti-KCNK1 (a generous gift of Dr. S. A. Goldstein and D. Bockenhauer) was used at 1:500. The 12-101 muscle marker (Gurdon et al., 1985, Cell 41: 913-22; Kintner and Brockes, 1984, Nature 308: 67-9) was used at 1:1 dilution; this monoclonal antibody developed by Jeremy P. Brockes was obtained from the Developmental Studies Hybridoma Bank developed under the auspices of the NICHD and maintained by The University of Iowa, Department of Biological Sciences, Iowa City, Iowa 52242.

Assay [4] concerns Vmem of Xenopus blastomeres. Kind of assay: Membrane voltage imaging of blastomeres with DiBAC4(3). The following applies: control vs treated embryos. The assay is classed as in vivo, Xenopus laevis. The text has this: Embryos marked with Alexa 647 dextran in the right ventral cell (RV) at the four cell stage (to allow orientation with respect to both axes) were monitored using DiBAC4(3) at the 4, 8, 16, and 32 cell stages. At 16 cells, we observed hyperpolarization of the RV quadrant, relative to the LV quadrant. DiBAC4(3) intensity on the left was greater than on the right. This pattern and its embryological timing are consistent with the self-referencing probe data, and with the hypothesis that higher net H^+ efflux from the right side results in a difference in membrane potential across the ventral midline.
We confirmed this in Xenopus blastomeres by imaging Vmem in vivo in control and concanamycin-treated embryos. Predicting that the membrane would depolarize if H^+-V-ATPase-based proton efflux was inhibited, we monitored Vmem using the voltage-reporting dye DiBAC4(3).
Bis-(1,3-[…])-trimethine oxanol (DiBAC4(3), Molecular Probes, Eugene, Oreg.) is a membrane-permeant, fluorescent molecule that accumulates inside a cell in proportion to the membrane voltage. Because it is anionic, the more depolarized a cell, the greater the accumulation of DiBAC4(3) and the greater the intensity of intracellular, relative to extracellular, fluorescence. […]. The dye was excited with 488 nm light from an argon laser and a 20 nm band of emission wavelengths centered at 515 was collected.

For assay [5], the system named is H+ flux from living early blastomeres. The assay is described as follows: Self-referencing ion-selective (Seris) probe measurement of H+ flux. As to conditions: in vivo. Also on record: species or system Xenopus laevis. An excerpt:
We examined ion flux using a self-referencing ion probe to measure H^+ flux from living early blastomeres. The H^+-V-ATPase endogenously acts to pump protons out of the cell (e.g., it mediates proton efflux). We note, however, that other ion transporters modulate influx of ions. The term ion flux refers to movement of ions across membranes, regardless of the direction. The techniques provided herein can be used to evaluate changes in either ion efflux or influx, and thus can generally be used to evaluate ion flux and changes in ion flux following manipulation of an ion transporter protein or a class of ion transporter proteins.
To confirm that the asymmetric efflux was due to asymmetric H^+-V-ATPase function, we compared H^+ efflux in control embryos to efflux from embryos treated with a variety of ion flux inhibitors.
The self-referencing ion-selective (Seris) probe consists of an ion selective microelectrode that is translated between two points in the extracellular space near the plasma membrane of a cell. If a net flux of ion into or out of the cell is detected, the resultant concentration gradient will be detected as a voltage difference from which the ion flux through the membrane can be calculated. […]. […]

Take `C/C=C/[C@H]1O[C@@](O)([C@@H](C)[C@H](O)[C@H](C)[C@H]2OC(=O)/C(OC)=C/C(C)=C/[C@@H](C)[C@@H](O)[C@@H](CC)[C@@H](O)[C@H](C)C/C(C)=C/C=C/[C@@H]2OC)C[C@@H](O)[C@@H]1C` [concanamycin]: the “heterotaxia, % of the embryos” value in assay [1] worked out at 35%. Also, in assay [2], the “aberrant sidedness of Nodal expression, % of embryos” value is given as 24%; the “aberrant sidedness of Shh expression, % of embryos” value was found to be 67%; the “expression of Shh and Nodal (sidedness)” value was “randomized”. Moreover, the “degree of apoptosis vs control” value in assay [3] was “no significant difference”. Also, the “effect on Vmem” value in assay [4] is reported as “depolarizes Vmem”. In assay [5], the “left/right asymmetry in the proton fluxes” value is given as “eliminated” and the “proton efflux on the right side” value is on record as “about half of its original value”.
